Test results as given in patent publication US5807985A, “Oligopeptide compounds containing D-2-alkyltryptophan capable of promoting the release of growth hormone” (priority 1997, dated 1998).
Where two headings read alike, the source gives them in different places. Peptide text beside a SMILES is read from it.

Legend:
Human heart tissue = assay: Inhibition of 125I-Tyr-Ala-HEXARELIN binding to human heart tissue membranes; settings: for percent of inhibition of 125I-Tyr-Ala-HEXARELIN specifically bound / specific binding of 125I-Tyr-Ala-HEXARELIN/0.1 mg membrane protein: heart; for IC50: human heart tissue
Protocol: (§1) The peptides of Examples 3 and 6 were further studied for inhibition of ^125 I--Tyr--Ala--HEXARELIN binding to human tissue. HEXARELIN is His--D--Mrp--Ala--Trp--D--Phe--Lys--NH2 where Mrp is 2-methyltryptophan.
(§2) Tissue membranes (0.1 mg protein) obtained from the heart and hypothalamus of two different adult subjects were incubated in triplicate with a subsaturating concentration (34 pM, about 48,000 cpm, for heart tissue and 42 pM, about 60,000 cpm, for hypothalamus tissue) of ^125 I--Tyr--Ala--HEXARELIN for 40 min at 0° C. in the absence and in the presence of increasing concentrations of the indicated unlabelled peptides. The value in parentheses represents the percent of inhibition of ^125 1I--Tyr--Ala--HEXARELIN specifically bound.
(§3) The specific binding of ^125 I--Tyr--Ala--HEXARELIN/0.1 mg membrane protein is expressed as a percent of total radioactivity added.

[1] = target: Human hypothalamus tissue; assay: Inhibition of 125I-Tyr-Ala-HEXARELIN binding to human hypothalamus tissue membranes; settings: for IC50: human hypothalamus tissue; for percent of inhibition of 125I-Tyr-Ala-HEXARELIN specifically bound / specific binding of 125I-Tyr-Ala-HEXARELIN/0.1 mg membrane protein: hypothalamus
Protocol: as §1, §2, §3

[2] = mean of subjects 1 and 2, read-out: mean IC50 value
[3] = subject 1, read-out: IC50 value
[4] = subject 2, read-out: IC50 value

Cc1[nH]c2ccccc2c1C[C@@H](NC(=O)[C@@H](N)Cc1cnc[nH]1)C(=O)N[C@@H](C)C(=O)N[C@@H](Cc1c[nH]c2ccccc12)C(=O)N[C@H](Cc1ccccc1)C(=O)N[C@@H](CCCCN)C(N)=O [HEXARELIN, His--D--Mrp--Ala--Trp--D--Phe--Lys--NH2] (HELM PEPTIDE1{H.[Cc1[nH]c2ccccc2c1C[C@@H](N[*:1])C(=O)[*:2]].A.W.[dF].K.[am]}$$$$V2.0)
percent of inhibition of 125I-Tyr-Ala-HEXARELIN specifically bound (Human heart tissue; 0.1 nM peptide, subject 1): 4% | specific binding of 125I-Tyr-Ala-HEXARELIN/0.1 mg membrane protein (Human heart tissue; 0.1 nM peptide, subject 1): 20.1% of total radioactivity | percent of inhibition of 125I-Tyr-Ala-HEXARELIN specifically bound (Human heart tissue; 0.1 nM peptide, subject 2): 5% | specific binding of 125I-Tyr-Ala-HEXARELIN/0.1 mg membrane protein (Human heart tissue; 0.1 nM peptide, subject 2): 22.8% of total radioactivity | percent of inhibition of 125I-Tyr-Ala-HEXARELIN specifically bound (Human heart tissue; 1 nM peptide, subject 1): 20% | specific binding of 125I-Tyr-Ala-HEXARELIN/0.1 mg membrane protein (Human heart tissue; 1 nM peptide, subject 1): 16.9% of total radioactivity | percent of inhibition of 125I-Tyr-Ala-HEXARELIN specifically bound (Human heart tissue; 1 nM peptide, subject 2): 28% | specific binding of 125I-Tyr-Ala-HEXARELIN/0.1 mg membrane protein (Human heart tissue; 1 nM peptide, subject 2): 17.3% of total radioactivity | percent of inhibition of 125I-Tyr-Ala-HEXARELIN specifically bound (Human heart tissue; 10 nM peptide, subject 1): 51% | specific binding of 125I-Tyr-Ala-HEXARELIN/0.1 mg membrane protein (Human heart tissue; 10 nM peptide, subject 1): 10.4% of total radioactivity | percent of inhibition of 125I-Tyr-Ala-HEXARELIN specifically bound (Human heart tissue; 10 nM peptide, subject 2): 56% | specific binding of 125I-Tyr-Ala-HEXARELIN/0.1 mg membrane protein (Human heart tissue; 10 nM peptide, subject 2): 10.5% of total radioactivity | percent of inhibition of 125I-Tyr-Ala-HEXARELIN specifically bound (Human heart tissue; 100 nM peptide, subject 1): 92% | specific binding of 125I-Tyr-Ala-HEXARELIN/0.1 mg membrane protein (Human heart tissue; 100 nM peptide, subject 1): 1.7% of total radioactivity | percent of inhibition of 125I-Tyr-Ala-HEXARELIN specifically bound (Human heart tissue; 100 nM peptide, subject 2): 90% | specific binding of 125I-Tyr-Ala-HEXARELIN/0.1 mg membrane protein (Human heart tissue; 100 nM peptide, subject 2): 2.4% of total radioactivity | percent of inhibition of 125I-Tyr-Ala-HEXARELIN specifically bound (Human heart tissue; 1000 nM peptide, subject 1): 100% | specific binding of 125I-Tyr-Ala-HEXARELIN/0.1 mg membrane protein (Human heart tissue; 1000 nM peptide, subject 1): 0% of total radioactivity | percent of inhibition of 125I-Tyr-Ala-HEXARELIN specifically bound (Human heart tissue; 1000 nM peptide, subject 2): 100% | specific binding of 125I-Tyr-Ala-HEXARELIN/0.1 mg membrane protein (Human heart tissue; 1000 nM peptide, subject 2): 0% of total radioactivity | IC50 (Human heart tissue; [2]): 9.5 nM | IC50 (Human heart tissue; [3]): 10.6 nM | IC50 (Human heart tissue; [4]): 8.3 nM | IC50 [1, 2]: 7 nM | IC50 [1, 3]: 8.9 nM | IC50 [1, 4]: 5 nM | percent of inhibition of 125I-Tyr-Ala-HEXARELIN specifically bound ([1]; 0.1 nM peptide, subject 1): 3% | specific binding of 125I-Tyr-Ala-HEXARELIN/0.1 mg membrane protein ([1]; 0.1 nM peptide, subject 1): 10.7% of total radioactivity | percent of inhibition of 125I-Tyr-Ala-HEXARELIN specifically bound ([1]; 0.1 nM peptide, subject 2): 4% | specific binding of 125I-Tyr-Ala-HEXARELIN/0.1 mg membrane protein ([1]; 0.1 nM peptide, subject 2): 9.1% of total radioactivity | percent of inhibition of 125I-Tyr-Ala-HEXARELIN specifically bound ([1]; 1 nM peptide, subject 1): 16% | specific binding of 125I-Tyr-Ala-HEXARELIN/0.1 mg membrane protein ([1]; 1 nM peptide, subject 1): 9.6% of total radioactivity | percent of inhibition of 125I-Tyr-Ala-HEXARELIN specifically bound ([1]; 1 nM peptide, subject 2): 19% | specific binding of 125I-Tyr-Ala-HEXARELIN/0.1 mg membrane protein ([1]; 1 nM peptide, subject 2): 7.7% of total radioactivity | percent of inhibition of 125I-Tyr-Ala-HEXARELIN specifically bound ([1]; 10 nM peptide, subject 1): 51% | specific binding of 125I-Tyr-Ala-HEXARELIN/0.1 mg membrane protein ([1]; 10 nM peptide, subject 1): 5.2% of total radioactivity | percent of inhibition of 125I-Tyr-Ala-HEXARELIN specifically bound ([1]; 10 nM peptide, subject 2): 67% | specific binding of 125I-Tyr-Ala-HEXARELIN/0.1 mg membrane protein ([1]; 10 nM peptide, subject 2): 3.1% of total radioactivity | percent of inhibition of 125I-Tyr-Ala-HEXARELIN specifically bound ([1]; 100 nM peptide, subject 1): 89% | specific binding of 125I-Tyr-Ala-HEXARELIN/0.1 mg membrane protein ([1]; 100 nM peptide, subject 1): 1.2% of total radioactivity | percent of inhibition of 125I-Tyr-Ala-HEXARELIN specifically bound ([1]; 100 nM peptide, subject 2): 93% | specific binding of 125I-Tyr-Ala-HEXARELIN/0.1 mg membrane protein ([1]; 100 nM peptide, subject 2): 0.7% of total radioactivity | percent of inhibition of 125I-Tyr-Ala-HEXARELIN specifically bound ([1]; 1000 nM peptide, subject 1): 100% | specific binding of 125I-Tyr-Ala-HEXARELIN/0.1 mg membrane protein ([1]; 1000 nM peptide, subject 1): 0% of total radioactivity | percent of inhibition of 125I-Tyr-Ala-HEXARELIN specifically bound ([1]; 1000 nM peptide, subject 2): 100% | specific binding of 125I-Tyr-Ala-HEXARELIN/0.1 mg membrane protein ([1]; 1000 nM peptide, subject 2): 0% of total radioactivity
